Measured values taken from patent US20180000745A1, “CRUCIFERIN COATED NANOPARTICLES” (priority 2016, published 2018).

System: Caco-2 cells
Experiment: Cell uptake of coumarin-6-loaded particles by confocal microscopy
Assay type: cell-based
Conditions: 6 h incubation; particles 0.5 mg/mL, coumarin-6 […] in DMEM
Experimental: To study the cell uptake of nanoparticles in Caco-2 cells, coumarin-6, as a fluorescent marker, was encapsulated into the nanoparticles. The cellular uptake of coumarin-6-loaded nanoparticles was compared with free coumarin-6 (not encapsulated). In brief, 1 mL of coumarin-6 solution in ethanol at concentrations ranging from 10 to 400 μg/mL was mixed with 9 mL 2 mg/mL chitosan solution in 0.1 M acetic acid. 9 mL of 5 mg/mL cruciferin solution (solubilized at pH 12) was added dropwise to the solution while stirring. The pH of the suspension was adjusted to 5.5, stirred for 2 h and then centrifuged at 40000 g and 4° C. for 30 min, Loaded particles pellet was collected, washed twice with water and centrifuged to remove free coumarin-6. The labelled particles were re-suspended in DMEM medium at concentrations of 0.1, 0.5 and 1 mg/mL. The size and zeta potential of the re-suspended particles were measured. Caco-2 cells (10^5 cells/well) were seeded on cover glasses placed in 6-well plates (Costar, Corning, N.Y.), and incubated until cells were about 80% confluent. 2.5 mL of labelled-particles suspensions or free coumarin-6 solution in DMEM medium was added to each well and incubated for 6 h at 37° C. Then, the cells were washed three times with PBS to remove free nanoparticles and coumarin-6. Cell membranes were stained with 10 μg/mL Alexa Fluor 594-Concanavalin A conjugate in PBS for 10 min. […]

In the case of `CCN(CC)c1ccc2cc(-c3nc4ccccc4s3)c(=O)oc2c1` [free coumarin-6, Coumarin 6], the “fluorescence within cells (cell uptake)” value is reported as “no noticeable signal was detected”.
